Results taken from ChEMBL document CHEMBL5321223, “Effects and mechanism of action of Chrysanthemum morifolium (Jinsi Huangju) on hyperlipidemia and non-alcoholic fatty liver disease” (Eur J Med Chem, 2023).
Active and inactive are the calls of the source. The rule behind the calls is not given here.

Legend:
Mus musculus [1] = experiment: Hypolipidemic activity in 24hrs fasted tyloxapol induced NAFLD Kunming mouse model assessed as decrease in spleen index at 50 to 200 mg/kg, IG relative to control; format: functional, organism-based; conditions: dose 50-200 mg/kg
[2] = Reduction in hepatic inflammation in 24hrs fasted tyloxapol induced NAFLD Kunming mouse model assessed as decrease in IL-6 level in liver at 200 mg/kg, IG and measured after 24 hrs; format: functional; design: scale not given: the % may be the effect or the level left
Mus musculus [3] = experiment: Amelioration of hepatic lesion in 24hrs fasted tyloxapol induced NAFLD Kunming mouse model assessed as reduction in hepatic steatosis at 50 to 200 mg/kg, IG by Oil red O staining based analysis; format: functional, organism-based; conditions: dose 50-200 mg/kg
Mus musculus [4] = experiment: Hypolipidemic activity in 24hrs fasted tyloxapol induced NAFLD Kunming mouse model assessed as decrease in hepatic TG level at 50 to 200 mg/kg, IG and measured after 24 hrs by biochemical analysis relative to control; format: functional, organism-based; conditions: dose 50-200 mg/kg
Mus musculus [5] = experiment: Hypolipidemic activity in 24hrs fasted tyloxapol induced NAFLD Kunming mouse model assessed as decrease in hepatic TC level at 50 to 200 mg/kg, IG and measured after 24 hrs by biochemical analysis relative to control; format: functional, organism-based; conditions: dose 50-200 mg/kg
Mus musculus [6] = experiment: Amelioration of hepatic lesion in 24hrs fasted tyloxapol induced NAFLD Kunming mouse model assessed as reduction in liver morphology alteration at 50 to 200 mg/kg, IG; format: functional, organism-based; conditions: dose 50-200 mg/kg
HepG2 [7] = experiment: Hypolipidemic activity in sodium oleate and sodium palmitate induced human HepG2 cells assessed as decrease in intracellular lipid content at 50 uM by Oil Red O staining based assay; format: functional; design: scale not given: the % may be the effect or the level left
Mus musculus [8] = experiment: Amelioration of hepatic lesion in 24hrs fasted tyloxapol induced NAFLD Kunming mouse model assessed as reduction in fat deposition at 50 to 200 mg/kg, IG by Oil red O staining based analysis; format: functional, organism-based; conditions: dose 50-200 mg/kg
Mus musculus [9] = experiment: Hypolipidemic activity in 24hrs fasted tyloxapol induced NAFLD Kunming mouse model assessed as increase in serum HDL-C level at 50 to 200 mg/kg, IG and measured after 24 hrs by biochemical analysis relative to control; format: functional, organism-based; conditions: dose 50-200 mg/kg
[10] = molecular target: T1, Pancreatic triacylglycerol lipase (Homo sapiens) (UniProt P16233); experiment: Inhibition of Pancreatic lipase (unknown origin) using 4-methylumbelleallyl oleate as substrate at 5 uM by microplate reader assay
T1 sequence (whole entry): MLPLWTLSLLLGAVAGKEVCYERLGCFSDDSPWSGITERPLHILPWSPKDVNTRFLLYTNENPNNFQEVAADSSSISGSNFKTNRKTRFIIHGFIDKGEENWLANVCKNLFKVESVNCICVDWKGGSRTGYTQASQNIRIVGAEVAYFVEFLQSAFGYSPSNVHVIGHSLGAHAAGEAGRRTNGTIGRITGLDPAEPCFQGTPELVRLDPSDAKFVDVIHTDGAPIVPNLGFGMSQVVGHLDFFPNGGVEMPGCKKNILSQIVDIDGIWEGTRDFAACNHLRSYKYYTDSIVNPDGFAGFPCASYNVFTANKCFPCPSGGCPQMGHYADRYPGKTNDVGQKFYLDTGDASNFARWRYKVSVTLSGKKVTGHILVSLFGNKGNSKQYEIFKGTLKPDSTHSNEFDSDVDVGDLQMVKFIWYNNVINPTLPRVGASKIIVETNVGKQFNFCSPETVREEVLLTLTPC

HepG2 [11] = experiment: Cytotoxicity against human HepG2 cells assessed as reduction in cell survival at 50 uM; format: toxicity, cell-based; conditions: hepg2, 50 µM
HepG2 [12] = experiment: Hypolipidemic activity in sodium oleate and sodium palmitate induced human HepG2 cells assessed as decrease in intracellular triglyceride level at 0.2 uM; format: functional; design: scale not given: the % may be the effect or the level left
Mus musculus [13] = experiment: In vivo activation of AMPK pathway in 24hrs fasted tyloxapol induced NAFLD Kunming mouse model assessed as increase in ACC phosphorylation in liver at 200 mg/kg, IG and measured after 24 hrs by Western blot anlaysis; format: functional, organism-based
HepG2 [14] = experiment: Hypolipidemic activity in sodium oleate and sodium palmitate induced human HepG2 cells assessed as decrease in intracellular triglyceride level at 50 uM; format: functional; design: scale not given: the % may be the effect or the level left
Mus musculus [15] = experiment: Hypolipidemic activity in 24hrs fasted tyloxapol induced NAFLD Kunming mouse model assessed as decrease in epididymis in white adipose tissue at 200 mg/kg, IG relative to control; format: functional, organism-based
Mus musculus [16] = experiment: Reduction in oxidative stress in 24hrs fasted tyloxapol induced NAFLD Kunming mouse model assessed as increase in serum SOD level at 50 to 200 mg/kg, IG and measured after 24 hrs by biochemical analysis relative to control; format: functional, organism-based; conditions: dose 50-200 mg/kg
[17] = Reduction in hepatic inflammation in 24hrs fasted tyloxapol induced NAFLD Kunming mouse model assessed as decrease in IL-6 level in liver at 50 mg/kg, IG and measured after 24 hrs; format: functional; design: scale not given: the % may be the effect or the level left
Mus musculus [18] = experiment: Amelioration of hepatic lesion in 24hrs fasted tyloxapol induced NAFLD Kunming mouse model assessed as reduction in fat deposition at 50 to 200 mg/kg, IG by H and E staining based analysis; format: functional, organism-based; conditions: dose 50-200 mg/kg
HepG2 [19] = experiment: Activation of AMPK signaling pathway in human HepG2 cells assessed as increase in AMPK phosphorylation at 0.2 to 50 uM by Western blot analysis; format: cell-based; conditions: filed as activator, dose 0.2-50 µM
[20] = molecular target: T1, Pancreatic triacylglycerol lipase (Homo sapiens); experiment: Inhibition of Pancreatic lipase (unknown origin) using 4-methylumbelleallyl oleate as substrate at 50 uM by microplate reader assay
Mus musculus [21] = experiment: Reduction in liver damage in 24hrs fasted tyloxapol induced NAFLD Kunming mouse model assessed as decrease in AST level in liver at 50 to 200 mg/kg, IG and measured after 24 hrs by biochemical analysis relative to control; format: functional, organism-based; conditions: dose 50-200 mg/kg
Mus musculus [22] = experiment: Hypolipidemic activity in 24hrs fasted tyloxapol induced NAFLD Kunming mouse model assessed as decrease in hepatic LDL-C level at 50 to 200 mg/kg, IG and measured after 24 hrs by biochemical analysis relative to control; format: functional, organism-based; conditions: dose 50-200 mg/kg
HepG2 [23] = experiment: Activation of AMPK signaling pathway in human HepG2 cells assessed as increase in ACC phosphorylation at 0.2 to 50 uM by Western blot analysis; format: cell-based; conditions: filed as activator, dose 0.2-50 µM
Mus musculus [24] = experiment: Hypolipidemic activity in 24hrs fasted tyloxapol induced NAFLD Kunming mouse model assessed as decrease in serum LDL-C level at 50 to 200 mg/kg, IG and measured after 24 hrs by biochemical analysis relative to control; format: functional, organism-based; conditions: dose 50-200 mg/kg
HepG2 [25] = experiment: Anti-hyperglycemic activity in 24 hrs serum deprived human HepG2 cells assessed as alleviation in insulin resistance by measuring increase in cellular glucose consumption at 0.2 to 50 uM and measured after 24 hrs by glucose kit anlaysis; format: functional, cell-based; conditions: dose 0.2-50 µM
Mus musculus [26] = experiment: Amelioration of hepatic lesion in 24hrs fasted tyloxapol induced NAFLD Kunming mouse model assessed as reduction in hepatic steatosis at 50 to 200 mg/kg, IG by H and E staining based analysis; format: functional, organism-based; conditions: dose 50-200 mg/kg
HepG2 [27] = experiment: Hypolipidemic activity in sodium oleate and sodium palmitate induced human HepG2 cells assessed as decrease in intracellular lipid content at 5 uM by Oil Red O staining based assay; format: functional; design: scale not given: the % may be the effect or the level left
Mus musculus [28] = experiment: Reduction in liver damage in 24hrs fasted tyloxapol induced NAFLD Kunming mouse model assessed as decrease in ALT level in liver at 50 to 200 mg/kg, IG and measured after 24 hrs by biochemical analysis relative to control; format: functional, organism-based; conditions: dose 50-200 mg/kg
HepG2 [29] = experiment: Hypolipidemic activity in sodium oleate and sodium palmitate induced human HepG2 cells assessed as decrease in intracellular lipid content at 0.2 to 50 uM by Oil Red O staining based assay; format: functional, cell-based; conditions: dose 0.2-50 µM
Mus musculus [30] = experiment: Amelioration of hepatic lesion in 24hrs fasted tyloxapol induced NAFLD Kunming mouse model assessed as reduction in liver index at 50 to 200 mg/kg, IG; format: functional, organism-based; conditions: dose 50-200 mg/kg
[31] = Reduction in hepatic inflammation in 24hrs fasted tyloxapol induced NAFLD Kunming mouse model assessed as decrease in IL-6 level in liver at 100 mg/kg, IG and measured after 24 hrs; format: functional; design: scale not given: the % may be the effect or the level left
Mus musculus [32] = experiment: Hypolipidemic activity in 24hrs fasted tyloxapol induced NAFLD Kunming mouse model assessed as increase in hepatic HDL-C level at 50 to 200 mg/kg, IG and measured after 24 hrs by biochemical analysis relative to control; format: functional, organism-based; conditions: dose 50-200 mg/kg
Mus musculus [33] = experiment: Reduction in liver damage in 24hrs fasted tyloxapol induced NAFLD Kunming mouse model assessed as decrease in serum AST level at 50 to 200 mg/kg, IG and measured after 24 hrs by biochemical analysis relative to control; format: functional, organism-based; conditions: dose 50-200 mg/kg
HepG2 [34] = experiment: Hypolipidemic activity in sodium oleate and sodium palmitate induced human HepG2 cells assessed as decrease in intracellular triglyceride level at 10 uM; format: functional; design: scale not given: the % may be the effect or the level left
HepG2 [35] = experiment: Hypolipidemic activity in sodium oleate and sodium palmitate induced human HepG2 cells assessed as decrease in intracellular lipid content at 0.2 uM by Oil Red O staining based assay; format: functional, cell-based
Mus musculus [36] = experiment: Reduction in oxidative stress in 24hrs fasted tyloxapol induced NAFLD Kunming mouse model assessed as decrease in hepatic MPO level at 50 to 200 mg/kg, IG and measured after 24 hrs by biochemical analysis relative to control; format: functional, organism-based; conditions: dose 50-200 mg/kg
Mus musculus [37] = experiment: In vivo activation of AMPK pathway in 24hrs fasted tyloxapol induced NAFLD Kunming mouse model assessed as increase in AMPK phosphorylation in liver at 200 mg/kg, IG and measured after 24 hrs by Western blot anlaysis; format: functional, organism-based
HepG2 [38] = experiment: Hypolipidemic activity in sodium oleate and sodium palmitate induced human HepG2 cells assessed as decrease in intracellular triglyceride level at 1 uM; format: functional; design: scale not given: the % may be the effect or the level left
Mus musculus [39] = experiment: Hypolipidemic activity in 24hrs fasted tyloxapol induced NAFLD Kunming mouse model assessed as decrease in serum TG level at 50 to 200 mg/kg, IG and measured after 24 hrs by biochemical analysis relative to control; format: functional, organism-based; conditions: dose 50-200 mg/kg
HepG2 [40] = experiment: Hypolipidemic activity in sodium oleate and sodium palmitate induced human HepG2 cells assessed as decrease in intracellular triglyceride level at 5 uM; format: functional; design: scale not given: the % may be the effect or the level left
Mus musculus [41] = experiment: Hypolipidemic activity in 24hrs fasted tyloxapol induced NAFLD Kunming mouse model assessed as decrease in serum TC level at 50 to 200 mg/kg, IG and measured after 24 hrs by biochemical analysis relative to control; format: functional, organism-based; conditions: dose 50-200 mg/kg
Mus musculus [42] = experiment: Reduction in liver damage in 24hrs fasted tyloxapol induced NAFLD Kunming mouse model assessed as decrease in serum ALT level at 50 to 200 mg/kg, IG and measured after 24 hrs by biochemical analysis relative to control; format: functional, organism-based; conditions: dose 50-200 mg/kg

O=C(O)CC(=O)OC[C@H]1O[C@@H](Oc2cc(O)c3c(=O)cc(-c4ccc(O)cc4)oc3c2)[C@H](O)[C@@H](O)[C@@H]1O
Activity (Mus musculus [1]): Active
Activity [2]: 18.03%
Activity (Mus musculus [3]): Active
Activity (Mus musculus [4]): Active
Activity (Mus musculus [5]): Active
Activity (Mus musculus [6]): Active
Activity (HepG2 [7]): 67.3%
Activity (Mus musculus [8]): Active
Activity (Mus musculus [9]): Active
inhibition [10]: 35%
Activity (HepG2 [11]): Non-Toxic
Activity (HepG2 [12]): 48.6%
Activity (Mus musculus [13]): Active
Activity (HepG2 [14]): 73%
Activity (Mus musculus [15]): Active
Activity (Mus musculus [16]): Active
Activity [17]: 23.68%
Activity (Mus musculus [18]): Active
Activity (HepG2 [19]): Active
inhibition [20]: 47.2%
Activity (Mus musculus [21]): Active
Activity (Mus musculus [22]): Active
Activity (HepG2 [23]): Active
Activity (Mus musculus [24]): Active
Activity (HepG2 [25]): Active
Activity (Mus musculus [26]): Active
Activity (HepG2 [27]): 74.9%
Activity (Mus musculus [28]): Active
Activity (HepG2 [29]): Dose-Dependent Effect
Activity (Mus musculus [30]): Active
Activity [31]: 22.44%
Activity (Mus musculus [32]): Active
Activity (Mus musculus [33]): Active
Activity (HepG2 [34]): 55.1%
Activity (HepG2 [35]): Active
Activity (Mus musculus [36]): Active
Activity (Mus musculus [37]): Active
Activity (HepG2 [38]): 52.2%
Activity (Mus musculus [39]): Active
Activity (HepG2 [40]): 54.7%
Activity (Mus musculus [41]): Active
Activity (Mus musculus [42]): Active

O=c1cc(-c2ccc(O)cc2)oc2cc(O[C@@H]3O[C@H](CO)[C@@H](O)[C@H](O)[C@H]3O)cc(O)c12 [APIGETRIN]
Activity (HepG2 [7]): 97.7%
inhibition [10]: 13.2%
Activity (HepG2 [11]): Non-Toxic
inhibition [20]: 59.1%
Activity (HepG2 [27]): 95.1%

O=c1cc(-c2ccc(O)c(O)c2)oc2cc(O)cc(O)c12 [LUTEOLIN]
inhibition [10]: 27.4%
Activity (HepG2 [11]): Toxic
inhibition [20]: 41.2%
Activity (HepG2 [27]): 91.6%

O=c1cc(-c2ccc(O)cc2)oc2cc(O)cc(O)c12 [APIGENIN]
inhibition [10]: 26.7%
Activity (HepG2 [11]): Toxic
inhibition [20]: 56.3%
Activity (HepG2 [27]): 92.4%
